Patent US20100087424A1, “TRICYCLIC NITROGEN CONTAINING HETEROCYCLES AS ANTIBACTERIAL AGENTS” (Glaxo Group Limited, priority 2007, published 2010)
Counter-ions that a name gives are not always drawn.

Each compound was assayed on Mycobacterium tuberculosis H37Rv (assay: Mycobacterium tuberculosis H37Rv Inhibition Assay (resazurin fluorescence)). Conditions: ATCC 25618 / H37Rv, read-out: MIC value, H37Rv strain (ATCC25618), Middlebrook 7H9+ADC, six days at 37° C., resazurin read after 48 hours.
Format: cell-based

SMILES | MIC
O=c1ccc2ccc(F)c3c2n1[C@H](CN1CC[C@H](NCc2cc4c(cn2)OCCO4)[C@H](O)C1)CO3 [Example 20, (3R)-3-({(3R,4S)-4-[(2,3-Dihydro[1,4]dioxino[2,3-c]pyridin-7-ylmethyl)amino]-3-hydroxy-1-piperidinyl}methyl)-10-fluoro-2,3-dihydro-5H-[1,4]oxazino[2,3,4-ij]quinolin-5-one dihydrochloride] | ≤ 2.8 µg/mL
O=c1ccc2ncc(F)c3c2n1[C@H](CN1CC[C@H](NCc2cc4c(cn2)OCCO4)[C@H](O)C1)CC3 [Example 30, 6-({(3R,4S)-4-[(2,3-dihydro[1,4]dioxino[2,3-c]pyridin-7-ylmethyl)amino]-3-hydroxy-1-piperidinyl}methyl)-3-fluoro-5,6-dihydro-4H,8H-pyrido[3,2,1-de]-1,5-naphthyridin-8-one dihydrochloride] | ≤ 2.8 µg/mL
O=C(O)c1ccccc1.O=c1ccc2ncc(F)c3c2n1[C@H](CN1CCC(NCc2cc4c(nn2)OCCS4)CC1)CO3 [Example 48, (6R)-6-({4-[(6,7-dihydro[1,4]oxathiino[2,3-c]pyridazin-3-ylmethyl)amino]-1-piperidinyl}methyl)-3-fluoro-5,6-dihydro-8H-[1,4]oxazino[2,3,4-de]-1,5-naphthyridin-8-one benzoate] | ≤ 2.8 µg/mL
